Results taken from patent US7223759B2, “Antibacterial 3,5-diaminopiperidine-substituted aromatic and heteroaromatic compounds” (Anadys Pharmaceuticals, Inc., priority 2003, dated 2007).

System: Escherichia coli (ATCC25922) or Staphylococcus aureus (ATCC25923)
Test: Antibacterial MIC, microdilution method in Mueller-Hinton medium
Format: cell-based
Settings: Escherichia coli, 18 h, MIC in E. coli or S. aureus; two-fold serial dilutions 64 to 0.5 μg/ml in duplicate; 18 hours of incubation at 35° C.; read-out: Potency (MIC)
In short: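 Read after 18 h incubation at 35° C, MIC is the lowest compound level that blocked growth. Compounds were tested in duplicate over 64–0.5 μg/ml two-fold dilutions using Mueller-Hinton microdilution per NCCLS standard.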

Row | MIC | Compound
1 | > 64 µg/mL | Cc1cc(=O)oc2cc(Nc3nc(N4C[C@H](N)C[C@H](N)C4)nc(N4C[C@@H](N)C[C@@H](O)C4)n3)ccc12 [7-[4-((3S,5R)-3-Amino-5-hydroxy-piperidin-1-yl)-6-((3R,5S)-3,5-diamino-piperidin-1-yl)-[1,3,5]triazin-2-ylamino]-4-methyl-chromen-2-one]
2 | < 64 µg/mL | Cl.N[C@@H]1C[C@H](N)CN(c2nc(Nc3ccc(Cl)c(Cl)c3)nc(N3C[C@H](N)C[C@H](N)C3)n2)C1 [N-(3,4-dichloro-phenyl)-4,6-Bis-((3R,5S)-3,5-diamino-piperidin-1-yl)-[1,3,5]triazine-2-amine]
3 | > 64 µg/mL | CC1=NN(c2ccc(Nc3nc(N4C[C@H](N)C[C@H](N)C4)nc(N4C[C@H](N)C[C@H](N)C4)n3)cc2)C(=O)C1CCO (stereo partly drawn) [N-{4-[4-(2-hydroxy-ethyl)-3-methyl-5-oxo-4,5-dihydro-pyrazol-1-yl]-phenyl}-4,6-Bis-((3R,5S)-3,5-diamino-piperidin-1-yl)-[1,3,5]triazine-2-amine]
4 | < 16 µg/mL | COc1cc(Nc2nc(N3CCCCC3)nc(N3CCCCC3)n2)ccc1NC(=O)c1ccc(Cl)cc1O.Cl [N-[4-(4-chlorro-2-hydroxy-benzoylamino)-3-methoxy-phenyl]-4,6-Bis-((3R,5S)-3,5-diamino-piperidin-1-yl)-[1,3,5]triazine-2-amine]
5 | < 16 µg/mL | CCOc1ccc(C(=O)Nc2ccc(Nc3nc(N4CCCCC4)nc(N4CCCCC4)n3)cc2O)cc1.Cl [N-[4-(4-ethoxy-benzoylamino)-3-hydroxy-phenyl]-4,6-Bis-((3R,5S)-3,5-diamino-piperidin-1-yl)-1,3,5]triazine-2-amine]
6 | < 16 µg/mL | COc1nc(Nc2ccc(C(=O)CC(=O)Nc3ccccc3Cl)cc2)nc(N2C[C@H](N)C[C@H](N)C2)n1.Cl [N-(2-Chloro-phenyl)-3-{4-[4-((3R,5S)-3,5-diamino-piperidin-1-yl)-6-methoxy-[1,3,5]triazin-2-ylamino]-phenyl}-3-oxo-propionamide]
7 | > 64 µg/mL | N[C@@H]1C[C@H](N)CN(c2nc(Nc3ccc(S(=O)(=O)Nc4ccc5cn[nH]c5c4)cc3)nc(N3C[C@H](N)C[C@H](N)C3)n2)C1 [N-[4-(1H-indazol-6-ylsulfamoyl)-phenyl]-4,6-Bis-((3R,5S)-3,5-diamino-piperidin-1-yl)-[1,3,5]triazine-2-amine]
8 | > 64 µg/mL | C#Cc1cccc(Nc2nc(N3CCCCC3)nc(N3CCCCC3)n2)c1.Cl [N-(3-ethylnyl-phenyl)-4,6-Bis-((3R,5S)-3,5-diamino-piperidin-1-yl)-[1,3,5]triazine-2-amine]

Same assay, conditions: Escherichia coli, 18 h, read-out: Potency (MIC)

Row | Compound | MIC
9 | N[C@@H]1C[C@H](N)CN(c2cc(Nc3ccc(NC(=O)c4ccc5ccccc5c4O)cc3)cc(N3C[C@H](N)C[C@H](N)C3)n2)C1 [1-Hydroxy-naphthalene-2-carboxylic acid [4-(2,6-Bis-((3R,5S)-3,5-diamino-piperidin-1-yl)-pyridin-4-ylamino)-phenyl]-amide] | < 16 µg/mL
10 | Cc1ccc(C(=O)Nc2ccc(Nc3nc(N4C[C@H](N)C[C@H](N)C4)nc(N4C[C@H](CN)C[C@H](CN)C4)n3)cc2O)cc1 [N-{4-[4-((3S,5R)-3,5-Bis-(aminomethyl)-piperidin-1-yl)-6-((3R,5S)-3,5-diamino-piperidin-1-yl)-[1,3,5]triazin-ylamino]-2-hydroxy-phenyl}-4-methyl-benzamide] | < 64 µg/mL
11 | N[C@@H]1C[C@H](N)CN(c2nc(Nc3ccc(NC(=O)c4ccc(Cl)cc4)c(O)c3)nc(N3CCN(CC(=O)N4CCOCC4)CC3)n2)C1 [4-Chloro-N-(4-{4-((3S,5R)-3,5-diamino-piperidin-1-yl)-6-[4-(2-morpholin-4-yl-2-oxo-ethyl)-piperazin-1-yl]-[1,3,5]triazin-2-ylamino}-2-hydroxy-phenyl)-benzamide] | > 64 µg/mL
12 | COc1ccc(NC(=O)c2ccc(C)cc2O)c(Nc2nc(N3C[C@H](N)C[C@H](N)C3)nc(N3C[C@H](N)C[C@H](N)C3)n2)c1 [N-[2-(2-hydroxy-4-methyl-benzoylamino)-5-methoxy-phenyl]-4,6-Bis-((3R,5S)-3,5-diamino-piperidin-1-yl)-[1,3,5]triazine-2-amine] | > 64 µg/mL
13 | N[C@@H]1C[C@H](N)CN(c2nc(Nc3ccc(C(=O)CC(=O)Nc4ccc(S(=O)(=O)Nc5ccc6cn[nH]c6c5)cc4)cc3)nc(N3C[C@H](N)C[C@H](N)C3)n2)C1 [N-(4-{2-[4-(1H-indazol-6-ylsulfamoyl)-phenylcarbamoyl]-acetyl}-phenyl)-4,6-Bis-((3R,5S)-3,5-diamino-piperidin-1-yl)-[1,3,5]triazine-2-amine] | < 64 µg/mL
14 | CC(C)c1cc(C(=O)Nc2ccc(Nc3nc(N4C[C@H](N)C[C@H](N)C4)nc(N4C[C@H](N)C[C@H](N)C4)n3)cc2)c(O)c(C(C)C)c1 [N-[4-(2-hydroxy-3,5-diisopropyl-benzoylamino)-phenyl]-4,6-Bis-((3R,5S)-3,5-diamino-piperidin-1-yl)-[1,3,5]triazine-2-amine] | < 16 µg/mL
15 | N[C@@H]1C[C@H](N)CN(c2nc(Nc3ccc(C(=O)CC(=O)Nc4ccccc4Cl)cc3)nc(N3C[C@@H](O)[C@@H](O)C3)n2)C1 [N-(2-Chloro-phenyl)-3-{4-[4-((3S,5R)-3,5-diamino-piperidin-1-yl)-6-((3R,4S)-3,4-dihydroxy-pyrrolidin-1-yl)-[1,3,5]triazin-2-ylamino]-phenyl}-3-oxo-propionamide] | < 64 µg/mL
16 | N[C@@H]1C[C@H](N)CN(c2nc(Nc3ccc(NC(=O)c4ccc(Cl)cc4)c(O)c3)nc(N3C[C@@H](N)C[C@H]3CO)n2)C1 [N-{4-[4-((2S,4S)-4-Amino-2-hydroxymethyl-pyrrolidin-1-yl)-6-((3R,5S)-3,5-diamino-piperidin-1-yl)-[1,3,5]triazin-2-ylamino]-2-hydroxy-phenyl}-4-chloro-benzamide] | < 64 µg/mL
17 | NC[C@H]1[C@@H](O)CCN1c1nc(Nc2ccc(NC(=O)c3ccc(Cl)cc3)c(O)c2)nc(N2C[C@H](N)C[C@H](N)C2)n1 [N-{4-[4-((2S,3S)-2-Aminomethyl-3-hydroxy-pyrrolidin-1-yl)-6-((3R,5S)-3,5-diamino-piperidin-1-yl)-[1,3,5]triazin-2-ylamino]-2-hydroxy-phenyl}-4-chloro-benzamide] | < 64 µg/mL
18 | COc1nc(Nc2ccc(NC(=O)c3ccc(Cl)cc3)c(O)c2)nc(N2C[C@H](N)C[C@H](N)C2)n1 [4-Chloro-N-{4-[4-((3R,5S)-3,5-diamino-piperidin-1-yl)-6-methoxy-[1,3,5]triazin-2-ylamino]-2-hydroxy-phenyl}-benzamide] | < 16 µg/mL
19 | COc1cccc(C(=O)Nc2ccc(Nc3nc(N4C[C@H](N)C[C@H](N)C4)nc(N4C[C@H](N)C[C@H](N)C4)n3)cc2O)c1O [N-[3-hydroxy-4-(2-hydroxy-3-methoxy-benzoylamino)-phenyl]-4,6-Bis-((3R,5S)-3,5-diamino-piperidin-1-yl)-[1,3,5]triazine-2-amine] | < 16 µg/mL
20 | N[C@@H]1C[C@H](N)CN(c2nc(Nc3ccc(NC(=O)c4c(O)ccc5ccccc45)c(Cl)c3)nc(N3C[C@H](N)C[C@H](N)C3)n2)C1 [N-{3-chloro-4-[(2-hydroxy-naphthalene-1-carbonyl)-amino]-phenyl}-4,6-Bis-((3R,5S)-3,5-diamino-piperidin-1-yl)-[1,3,5]triazine-2-amine] | < 16 µg/mL
21 | N[C@@H]1C[C@H](N)CN(c2nc(Nc3ccc(S(=O)(=O)Nc4ccc5cn[nH]c5c4)cc3)nc(N3C[C@@H](O)[C@@H](O)C3)n2)C1 [4-[4-((3S,5R)-3,5-Diamino-piperidin-1-yl)-6-((3R,4S)-3,4-dihydroxy-pyrrolidin-1-yl)-[1,3,5]triazin-2-ylamino]-N-(1H-indazol-6-yl)-benzenesulfonamide] | > 64 µg/mL
22 | N[C@@H]1C[C@H](N)CN(c2nc(NCCc3ccc(Cl)cc3Cl)nc(N3C[C@H](N)C[C@H](N)C3)n2)C1 [N-[2-(2,4-dichloro-phenyl)-ethyl]-4,6-Bis-((3R,5S)-3,5-diamino-piperidin-1-yl)-[1,3,5]triazine-2-amine] | > 64 µg/mL
23 | N[C@@H]1C[C@H](N)CN(c2nc(Nc3ccc(C(=O)CC(=O)Nc4cccc(CO)c4)cc3)nc(N3C[C@H](N)C[C@H](N)C3)n2)C1 [N-{4-[2-(3-hydroxymethyl-phenylcarbamoyl)-acetyl]-phenyl}-4,6-Bis-((3R,5S)-3,5-diamino-piperidin-1-yl)-[1,3,5]triazine-2-amine] | > 64 µg/mL
24 | COc1nc(Nc2ccc(NC(=O)c3ccc(C)cc3)c(O)c2)nc(N2C[C@H](N)C[C@H](N)C2)n1 [N-{4-[4-((3R,5S)-3,5-Diamino-piperidin-1-yl)-6-methoxy-[1,3,5]triazin-2-ylamino]-2-hydroxy-phenyl}-4-methyl-benzamide] | < 64 µg/mL
25 | N[C@@H]1C[C@H](N)CN(c2nc(Nc3ccc4c(c3)-c3ccccc3C4=O)nc(N3C[C@@H](N)[C@@H](N)C3)n2)C1 [3-[4-((3R,5S)-3,5-Diamino-piperidin-1-yl)-6-((3R,4S)-3,4-diamino-pyrrolidin-1-yl)-[1,3,5]triazin-2-ylamino]-fluoren-9-one] | < 64 µg/mL

Same assay, conditions: MIC in E. coli or S. aureus; two-fold serial dilutions 64 to 0.5 μg/ml in duplicate; 18 hours of incubation at 35° C.

Row | Compound | Potency (MIC)
26 | carboxylic acid {4-[4-((2S,4S)-4-amino-2-hydroxymethyl-pyrrolidin-1-yl)-6-((3R,5S)-3,5-diamino-piperidin-1-yl)-[1,3,5]triazine-2-ylamino]-phenyl}-amide | ++ (++ means MIC<16 μg/ml in E. coli or S. aureus)
27 | 7-[4-((2S,4S)-4-Amino-2-aminomethyl-pyrrolidin-11-yl)-6-((3R,5S)-3,5-diamino-piperidin-1-yl)-[1,3,5]triazin-2-ylamino]-4-methyl-chromen-2-one | − (− means MIC>64 μg/ml in E. coli or S. aureus)
28 | N-(4-acetylamino-3,5-dichloro-phenyl)-4,6-Bis-0((3R,5S)-3,5-diamino-piperidin-1-yl)-[1,3,5]triazine-2-amine | − (− means MIC>64 μg/ml in E. coli or S. aureus)
